Results: US8053435B2, “Naphthalenyloxypropenyl derivatives having inhibitory activity against histone deacetylase and pharmaceutical composition comprising the same” (Korea Research Institute of Chemical Technology, priority 2006, dated 2011)
Like-named read-outs stand apart in the source and are kept apart here.

Key:
[1] = tested on: colon cancer cells HCT116; test: Inhibitory activity against proliferation of cancer cells, SRB (Sulforhodamine B) analysis; assay type: cell-based; conditions: read-out: Inhibitory conc. against cancer cell growth (EC50 μM) HCT116
Description: Cancer cells were inoculated into a 96-well microplate at a concentration of 1×10^3˜3×10^3 cells/well and incubated under the condition of 37° C., 5% CO2 for 24 hrs. After the incubation was completed, 0.2, 1, 5, 25, or 100 μM of each of the compounds of Examples was added to the plate, and then the reactant was incubated for 48 hrs. After the substrate was stained with SRB, the anti-cancer activity was determined by comparing the amount of protein in the cells treated with the compound of Examples with that of protein in untreated cells.
Specifically, after the incubation was completed, the culture medium was removed from each well, and the cells were washed 3 times with PBS (pH 7.4). Then, a solution of 50% trichloroacetic acid (TCA) was added to each well in an amount of 50 μl/well at 4° C. for 1 hr to fix them. Then, the microplate was washed 5 times with distilled water and dried in air. […]
50 μl of a staining solution prepared by dissolving 0.4% SRB in 1% acetic acid was added to the wells, and the microplate was kept at room temperature for 1 hr. The well plate was then washed 5 times with 1% acetic acid to remove unbound SRB and dried in air. The stained cells were treated with 150 μl/well of 10 mM Tris-HCl solution (pH 10.5) to elute SRB from the cells, and the absorbance of the cells treated with the compounds of examples at 540 nm was measured, based on the absorbance of an untreated cell. The EC50 value representing inhibition of the cancer cell growth by the extent of 50% was calculated from the measured absorbance, and the results are shown in Table 6.

HDAC = test: Inhibitory activity against HDAC (BIOMOL Quantizyme Assay system, Fluor de Lys substrate); assay type: biochemical; conditions: HeLa nuclear extract as source of HDAC enzymes, enzyme reaction 1 hr
Description: HDAC activity was analyzed using BIOMOL Quantizyme™ Assay system which comprised two steps of 1) enzyme reaction between HDAC and a substrate and 2) determination of the level of HDAC inhibitory activity.
(§1) 0.5 μl of HeLa nuclear organic layer (10 μM) (a source of HDAC enzymes) was then added thereto to a final concentration of 100 nM. The enzyme reaction was carried out for 1 hr.
Subsequently, in step 2), 2 μM tricostatin A was added to 50 μl of Flour de Lys™ developer, followed by allowing the mixture to react at room temperature for 15 minutes. The light excited at 355 nm and emitted at 460 nm from the fluorophore was measured with a fluorometric plate reader. The intensity of the fluorescence increases as the enzyme activity is higher. The HDAC inhibitory activity of each of the test compounds was determined and compared with that of the control.
0.5 μl of HeLa nuclear organic layer (10 μM) (a source of HDAC enzymes) was then added thereto to a final concentration of 100 nM, The enzyme reaction was carried out for 1 hr.
as §1, §1

[2] = Homo sapiens, HCT-116, Table 6, 48 hrs incubation with compound
[3] = Table 5, formula (3) series, read-out: Inhibitory conc. (IC50, μM/ml)
[4] = Homo sapiens, HCT-116, Table 8, 48 hrs incubation with compound
[5] = Table 7, formula (4) series, read-out: HDAC Inhibitory conc. (IC50, μM/ml)

| Molecule | EC50 [1, 2] [µM] | IC50 (HDAC; [3]) [µM] | EC50 [1, 4] [µM] | IC50 (HDAC; [5]) [µM] | EC50 ([1]; Table 6, 48 hrs incubation with compound) [µM] |
| --- | --- | --- | --- | --- | --- |
| O=C(CCCC/C=C(/CNCCN1CCOCC1)COc1cccc2ccccc12)NO [Example 3-1, (Z)—N-hydroxy-8-(2-morpholinoethylamino)-7-((naphthalen-1-yloxy)methyl)oct-6-enamide] | 0.2 | 0.002 |  |  |  |
| O=C(CCCC/C=C(/CNCCCN1CCCC1=O)COc1cccc2ccccc12)NO [Example 3-3, (Z)—N-Hydroxy-8-(naphthalen-1-yloxy)-7-((3-(2-oxopyrrolidin-1-yl)propylamino)methyl)oct-6-enamide] | 0.5 | 0.003 |  |  |  |
| CN(C)CC(C)(C)CNC/C(=C/CCCCC(=O)NO)COc1cccc2ccccc12 [Example 3-7, (Z)-8-(3-(Dimethylamino)-2,2-dimethylpropylamino)-N-hydroxy-7-((naphthalen-1-yloxy)methyl)oct-6-enamide] | 1.2 | 0.012 |  |  |  |
| COCCNC/C(=C/CCCCC(=O)NO)COc1cccc2ccccc12 [Example 3-10, (Z)—N-Hydroxy-8-(2-methoxyethylamino)-7-((naphthalen-1-yloxy)methyl)oct-6-enamide] | < 0.2 | 0.006 |  |  |  |
| CC(C)N1CCC(NC/C(=C/CCCCC(=O)NO)COc2cccc3ccccc23)CC1 [Example 3-11, (Z)—N-Hydroxy-8-(1-isopropylpiperidin-4-ylamino)-7-((naphthalen-1-yloxy)methyl)oct-6-enamide] | 1.3 | 0.012 |  |  |  |
| CCN1CCC(NC/C(=C/c2ccc(C(=O)NO)cc2)COc2cccc3ccccc23)C1 (centres unmarked) [Example 4-2, (Z)-4-(3-(1-ethylpyrrolidin-3-ylamino)-2-((naphthalen-1-yloxy)methyl)prop-1-enyl)-N-hydroxybenzamide] |  |  | 0.8 | 0.017 |  |
| CC(C)N1CCC(NC/C(=C/c2ccc(C(=O)NO)cc2)COc2cccc3ccccc23)CC1 [Example 4-15, (Z)—N-hydroxy-4-(3-(1-isopropylpiperidin-4-ylamino)-2-((naphthalen-1-yloxy)methyl)prop-1-enyl)benzamide] |  |  | 0.4 | 0.014 |  |
| O=C(NO)c1ccc(/C=C(/CNCCCn2ccnc2)COc2cccc3ccccc23)cc1 [Example 4-16, (Z)-4-(3-(3-(1H-imidazol-1-yl)propylamino)-2-((naphthalen-1-yloxy)methyl)prop-1-enyl)-N-hydroxybenzamide] |  |  | 0.7 | 0.003 |  |
| CN(C)CC(C)(C)CNC/C(=C/c1ccc(C(=O)NO)cc1)COc1cccc2ccccc12 [Example 4-18, (Z)-4-(3-(3-(dimethylamino)-2,2-dimethylpropylamino)-2-((naphthalen-1-yloxy)methyl)prop-1-enyl)-N-hydroxybenzamide] |  |  | 0.31 | 0.006 |  |
| CC(C)N(CCNC/C(=C/c1ccc(C(=O)NO)cc1)COc1cccc2ccccc12)C(C)C [Example 4-19, (Z)-4-(3-(2-(diisopropylamino)ethylamino)-2-((naphthalen-1-yloxy)methyl)prop-1-enyl)-N-hydroxybenzamide] |  |  | 0.8 | 0.016 |  |
| O=C(NO)c1ccc(/C=C(/CNCc2cccs2)COc2cccc3ccccc23)cc1 [Example 4-22, (Z)—N-hydroxy-4-(3-(naphthalen-1-yloxy)-2-((thiophen-2-ylmethylamino)methyl)prop-1-enyl)benzamide] |  |  | 1.3 | 0.02 |  |
| COc1ccc(CCNC/C(=C/c2ccc(C(=O)NO)cc2)COc2cccc3ccccc23)cc1 [Example 4-23, (Z)—N-hydroxy-4-(3-(4-methoxyphenethylamino)-2-((naphthalen-1-yloxy)methyl)prop-1-enyl)-benzamide] |  |  | 0.8 | 0.04 |  |

Next, values leading:

| EC50 [1, 2] [µM] | IC50 (HDAC; [3]) [µM] | EC50 [1, 4] [µM] | IC50 (HDAC; [5]) [µM] | EC50 ([1]; Table 6, 48 hrs incubation with compound) [µM] | Molecule |
| --- | --- | --- | --- | --- | --- |
| 0.2 | 0.005 |  |  |  | COCC(C)NC/C(=C/CCCCC(=O)NO)COc1cccc2ccccc12 (centres unmarked) [Example 3-2, (Z)—N-Hydroxy-8-(1-methoxypropan-2-ylamino)-7-((naphthalen-1-yloxy)methyl)oct-6-enamide] |
| 0.7 | 0.003 |  |  |  | O=C(CCCC/C=C(/CNCCCn1ccnc1)COc1cccc2ccccc12)NO [Example 3-4, (Z)-8-(3-(1H-Imidazol-1-yl)propylamino)-N-hydroxy-7-((naphthalen-1-yloxy)methyl)oct-6-enamide] |
| 0.5 | 0.005 |  |  |  | O=C(CCCC/C=C(/CNCCN1CCCC1)COc1cccc2ccccc12)NO [Example 3-8, (Z)—N-Hydroxy-8-(naphthalen-1-yloxy)-7-((2-(pyrrolidin-1-yl)ethylamino)methyl)oct-6-enamide] |
| 0.3 | 0.002 |  |  |  | O=C(CCCC/C=C(/CNCc1cccs1)COc1cccc2ccccc12)NO [Example 3-14, (Z)—N-Hydroxy-8-(naphthalen-1-yloxy)-7-((thiophen-2-ylmethylamino)methyl)oct-6-enamide] |
|  |  | 1.1 | 0.014 |  | CCN1CCC(NC/C(=C/c2ccc(C(=O)NO)cc2)COc2cccc3ccccc23)CC1 [Example 4-1, (Z)-4-(3-(1-ethylpiperidin-4-ylamino)-2-((naphthalen-1-yloxy)methyl)prop-1-enyl)-N-hydroxybenzamide] |
|  |  | 10 | 0.016 |  | O=C(NO)c1ccc(/C=C(/CNC2CCN(C3CCCC3)CC2)COc2cccc3ccccc23)cc1 [Example 4-7, (Z)-4-(3-(1-cyclopentylpiperidin-4-ylamino)-2-((naphthalen-1-yloxy)methyl)prop-1-enyl)-N-hydroxybenzamide] |
|  |  | 0.5 | 0.011 |  | O=C(NO)c1ccc(/C=C(/CNC2CCN(C3CC3)CC2)COc2cccc3ccccc23)cc1 [Example 4-10, (Z)-4-(3-(1-cyclopropylpiperidin-4-ylamino)-2-((naphthalen-1-yloxy)methyl)prop-1-enyl)-N-hydroxybenzamide] |
|  |  | 1 | 0.023 |  | O=C(NO)c1ccc(/C=C(/CNC2CCN(C3CC3)C2)COc2cccc3ccccc23)cc1 (centres unmarked) [Example 4-11, (Z)-4-(3-(1-cyclopropylpyrrolidin-3-ylamino)-2-((naphthalen-1-yloxy)methyl)prop-1-enyl)-N-hydroxybenzamide] |
|  |  | < 0.2 | 0.005 |  | COCC(C)NC/C(=C/c1ccc(C(=O)NO)cc1)COc1cccc2ccccc12 (centres unmarked) [Example 4-13, (Z)—N-hydroxy-4-(3-(1-methoxypropan-2-ylamino)-2-((naphthalen-1-yloxy)methyl)prop-1-enyl)benzamide] |
|  |  | < 0.2 | 0.003 |  | O=C(NO)c1ccc(/C=C(/CNCCc2ccc(O)cc2)COc2cccc3ccccc23)cc1 [Example 4-17, (Z)—N-hydroxy-4-(3-(4-hydroxyphenethylamino)-2-((naphthalen-1-yloxy)methyl)prop-1-enyl)-benzamide] |
|  |  | < 0.2 | 0.01 |  | COCCNC/C(=C/c1ccc(C(=O)NO)cc1)COc1cccc2ccccc12 [Example 4-20, (Z)—N-hydroxy-4-(3-(2-methoxyethylamino)-2-((naphthalen-1-yloxy)methyl)prop-1-enyl)-benzamide] |
|  |  | 0.5 | 0.011 |  | CN(C)c1ccc(CNC/C(=C/c2ccc(C(=O)NO)cc2)COc2cccc3ccccc23)cc1 [Example 4-24] |
|  | 0.003 |  |  | 0.4 | (Z)-8-(4-Fluorophenethylamino)-N-hydroxy-7-((naphthalen-1-yloxy)methyl)oct-enamide [Example 3-9] |
